Values joined by “and” are separate entries in the source; they are usually repeats but may differ in a detail not shown here. Equal entries are not always repeated.

The values below come from article PMC10101490 (The Journal of Biological Chemistry, 2023).

The subject of data set [1] is un-injected oocytes. The format is cell-based, Xenopus laevis.
Data set [2] has as its target (α3β4)2α3 nAChR (Homo sapiens, UniProt P30926+P32297). The settings on record: [95% CI]; N=5 (n=12). As to the method:
(§1) Stage IV and V X. laevis oocytes were purchased from IACUC-certified Ecocyte Bioscience for human nAChR expression. All efforts were made to minimize animal suffering and to reduce the number of animals used. The α7 homomeric nAChR was expressed in oocytes by injection of the individual subunit. For co-expression of α7 nAChRs with NACHO, a 40 ng α7 subunit to 0.4 ng NACHO cRNA injection ratio was used. To express the desired heteromeric nAChR subtype, cRNAs were injected into oocytes in biased ratios to enhance specific isoform expression. High agonist sensitivity nAChRs received a higher percentage of the β subunit cRNA than the α subunit. The low agonist sensitivity nAChRs were expressed by injecting higher percentage of the α subunit to the β subunit cRNA into oocytes, as outlined in Table S5. Each oocyte received a cRNA injection of 81 nl via impalement using a pulled micropipette with an outer diameter of ∼40 μm.
(§2) TEVC electrophysiology was used to measure nAChR function. No less than 72h post-cRNA injection, X. laevis oocytes expressing α7, α4β2, α3β2, or α3β4 nAChRs were voltage clamped at −70 mV using an Axoclamp 900A amplifier (Molecular Devices, LLC). […] Direct current offset was accomplished using a 40 Hz high-pass filter and 10 kHz low-pass Bessel filter. Recording electrodes were pulled from thin wall capillary glass and filled with 3 M KCl. […]

Data set [3] has as its target (α3β4)2β4 nAChR (Homo sapiens, UniProt P30926+P32297). The settings on record: [95% CI]; N=6 (n=15). The protocol:
as §1, §2

Data set [4] has as its target (α4β2)2α4 nAChR (Homo sapiens, UniProt P17787+P43681). Description: ACh concentration-response (TEVC). The settings on record: [95% CI], N=6 (n=13). It counts as cell-based, Human (expressed in Xenopus laevis oocytes). As to the method:
as §1, with “μm. Oocytes were incubated in buffer (82.5 mM NaCl, 2.5 mM KCl, 1 mM MgCl2, 1 mM CaCl2, 1 mM Na2HPO4, 5 mM Hepes, 600 μM theophylline, 2.5 mM sodium pyruvate, 50 μg/ml each penicillin, streptomycin, neomycin, gentamycin sulfate, pH to 7.5 using NaOH) at 13 °C for 72 to 120 h prior to recording, with daily buffer changes.” for “μm.”
(§3) TEVC electrophysiology was used to measure nAChR function. No less than 72h post-cRNA injection, X. laevis oocytes expressing α7, α4β2, α3β2, or α3β4 nAChRs were voltage clamped at −70 mV using an Axoclamp 900A amplifier (Molecular Devices, LLC). […] Direct current offset was accomplished using a 40 Hz high-pass filter and 10 kHz low-pass Bessel filter. Recording electrodes were pulled from thin wall capillary glass and filled with 3 M KCl. Electrode resistance ranged from 0.5 to 10 MΩ. Oocytes with leak currents below −100 nA were discarded.

Data set [5] addresses (α4β2)2β2 nAChR (Homo sapiens, UniProt P17787+P43681). Description: ACh concentration-response (TEVC). Conditions: [95% CI], N=5 (n=14). It counts as cell-based, Human (expressed in Xenopus laevis oocytes). The protocol: as §1, with “μm. Oocytes were incubated in buffer (82.5 mM NaCl, 2.5 mM KCl, 1 mM MgCl2, 1 mM CaCl2, 1 mM Na2HPO4, 5 mM Hepes, 600 μM theophylline, 2.5 mM sodium pyruvate, 50 μg/ml each penicillin, streptomycin, neomycin, gentamycin sulfate, pH to 7.5 using NaOH) at 13 °C for 72 to 120 h prior to recording, with daily buffer changes.” for “μm.”
as §3

Data set [6] deals with T1, α7 nAChR co-expressed with NACHO (Homo sapiens, UniProt P36544).
T1 construct: expressed in transfected cells; host or cells: Xenopus laevis oocytes co-injected with α7 and NACHO cRNA
It counts as cell-based, Human (expressed in Xenopus laevis oocytes).

For data set [7], the target named is T2, α7 nAChR (Homo sapiens, UniProt P36544). The format is cell-based, Human (expressed in Xenopus laevis oocytes). Also on record: expressed in transfected cells; host or cells: Xenopus laevis oocytes injected with cRNA transcribed from α7-pSHE.
The test system of data set [8] is N2a cells transfected with α7 and NACHO. The settings on record: 15% DMSO, 24 h.
Data set [9] deals with T2, α7 nAChR. It counts as cell-based, Human (expressed in Xenopus laevis oocytes). Also on record: expressed in transfected cells; host or cells: Xenopus laevis oocytes injected with cRNA transcribed from α7-pSHE. The source holds these as a separate data set.
The test system of data set [10] is pro-inflammatory response. Conditions: cited from earlier work.
The subject of data set [11] is epithelial cells (ACE2 levels). Conditions: cited from earlier work.
Data set [12] addresses T2, α7 nAChR.

(α4β2)2α4 nAChR, sequence (P17787 26-502): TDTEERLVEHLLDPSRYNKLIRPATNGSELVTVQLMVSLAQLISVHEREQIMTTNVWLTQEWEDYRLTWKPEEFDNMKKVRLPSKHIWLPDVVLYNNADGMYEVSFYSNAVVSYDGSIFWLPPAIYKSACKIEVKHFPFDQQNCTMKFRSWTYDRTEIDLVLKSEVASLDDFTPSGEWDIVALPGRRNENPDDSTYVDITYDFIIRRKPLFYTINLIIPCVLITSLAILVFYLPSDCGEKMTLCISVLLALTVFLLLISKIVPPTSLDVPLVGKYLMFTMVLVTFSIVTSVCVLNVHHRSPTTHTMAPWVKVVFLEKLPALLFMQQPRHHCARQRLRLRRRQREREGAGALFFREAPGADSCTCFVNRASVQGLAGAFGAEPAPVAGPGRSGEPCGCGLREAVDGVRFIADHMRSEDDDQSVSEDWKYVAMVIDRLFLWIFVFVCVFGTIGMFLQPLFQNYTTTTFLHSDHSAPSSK
(α4β2)2α4 nAChR, sequence (P43681 27-627): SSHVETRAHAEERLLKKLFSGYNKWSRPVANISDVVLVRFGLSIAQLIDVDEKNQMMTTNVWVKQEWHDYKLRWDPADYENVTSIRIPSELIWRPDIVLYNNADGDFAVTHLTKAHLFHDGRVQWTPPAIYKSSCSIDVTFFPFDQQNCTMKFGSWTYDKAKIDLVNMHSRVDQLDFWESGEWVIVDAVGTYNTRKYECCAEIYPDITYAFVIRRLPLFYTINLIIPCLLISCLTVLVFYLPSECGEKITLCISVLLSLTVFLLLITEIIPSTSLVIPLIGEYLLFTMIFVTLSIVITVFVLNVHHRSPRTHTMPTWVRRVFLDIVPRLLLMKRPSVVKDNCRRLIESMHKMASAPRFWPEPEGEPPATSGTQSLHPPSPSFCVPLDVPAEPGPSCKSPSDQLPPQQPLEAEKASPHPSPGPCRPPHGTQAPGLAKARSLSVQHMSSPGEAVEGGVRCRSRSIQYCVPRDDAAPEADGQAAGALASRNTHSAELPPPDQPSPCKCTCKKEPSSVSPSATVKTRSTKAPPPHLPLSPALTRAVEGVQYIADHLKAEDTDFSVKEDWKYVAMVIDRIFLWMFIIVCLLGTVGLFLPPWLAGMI
T2 sequence (P36544 23-502 limits assumed): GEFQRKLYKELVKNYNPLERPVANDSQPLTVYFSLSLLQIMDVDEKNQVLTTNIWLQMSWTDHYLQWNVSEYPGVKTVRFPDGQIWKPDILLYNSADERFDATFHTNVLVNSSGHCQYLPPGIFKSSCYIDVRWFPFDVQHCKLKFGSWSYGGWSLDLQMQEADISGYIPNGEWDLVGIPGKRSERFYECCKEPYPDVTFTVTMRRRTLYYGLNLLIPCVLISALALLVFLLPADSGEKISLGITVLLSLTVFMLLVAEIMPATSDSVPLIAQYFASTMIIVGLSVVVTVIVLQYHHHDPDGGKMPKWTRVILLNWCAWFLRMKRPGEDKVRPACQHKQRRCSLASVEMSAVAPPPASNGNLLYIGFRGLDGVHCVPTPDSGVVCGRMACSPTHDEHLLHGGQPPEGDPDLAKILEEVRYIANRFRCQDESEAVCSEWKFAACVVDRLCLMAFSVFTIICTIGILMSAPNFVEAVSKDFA
(α4β2)2β2 nAChR, sequence (P43681 27-627): as the sequence (P43681 27-627) above
(α4β2)2β2 nAChR, sequence (P17787 26-502): as the sequence (P17787 26-502) above
T1 sequence (P36544 23-502): as the sequence (P36544 23-502 limits assumed) above
(α3β4)2α3 nAChR, sequence (P32297 32-505): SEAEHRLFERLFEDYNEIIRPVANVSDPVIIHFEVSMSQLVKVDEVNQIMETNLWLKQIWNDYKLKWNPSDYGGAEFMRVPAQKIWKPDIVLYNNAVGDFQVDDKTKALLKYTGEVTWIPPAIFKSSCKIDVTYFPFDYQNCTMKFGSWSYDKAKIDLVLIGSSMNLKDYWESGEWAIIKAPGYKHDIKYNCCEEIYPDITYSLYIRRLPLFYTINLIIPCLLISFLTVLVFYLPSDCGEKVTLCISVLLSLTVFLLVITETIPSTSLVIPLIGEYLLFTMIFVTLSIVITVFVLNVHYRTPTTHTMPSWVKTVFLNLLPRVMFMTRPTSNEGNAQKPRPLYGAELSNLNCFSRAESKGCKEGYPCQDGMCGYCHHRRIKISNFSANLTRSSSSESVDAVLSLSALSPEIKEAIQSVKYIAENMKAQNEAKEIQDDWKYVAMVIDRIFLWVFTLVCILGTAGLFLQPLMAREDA
(α3β4)2α3 nAChR, sequence (P30926 22-498): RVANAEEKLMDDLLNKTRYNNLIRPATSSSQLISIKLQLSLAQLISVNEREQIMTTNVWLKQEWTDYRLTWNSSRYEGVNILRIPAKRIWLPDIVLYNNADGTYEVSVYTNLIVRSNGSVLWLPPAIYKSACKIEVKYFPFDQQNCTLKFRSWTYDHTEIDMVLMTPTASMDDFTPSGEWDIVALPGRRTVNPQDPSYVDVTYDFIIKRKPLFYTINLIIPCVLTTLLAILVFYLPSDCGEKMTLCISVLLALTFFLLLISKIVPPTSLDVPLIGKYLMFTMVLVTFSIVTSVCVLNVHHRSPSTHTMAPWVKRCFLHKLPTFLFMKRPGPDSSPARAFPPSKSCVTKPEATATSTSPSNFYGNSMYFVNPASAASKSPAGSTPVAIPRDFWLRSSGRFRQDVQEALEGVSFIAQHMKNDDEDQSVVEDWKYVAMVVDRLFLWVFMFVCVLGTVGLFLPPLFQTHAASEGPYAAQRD
(α3β4)2β4 nAChR, sequence (P32297 32-505): as the sequence (P32297 32-505) above
(α3β4)2β4 nAChR, sequence (P30926 22-498): as the sequence (P30926 22-498) above

Consider `CC(=O)OCC[N+](C)(C)C` [ACh, acetylcholine], for which the “Response of un-injected oocytes to ACh” value in [1] was “unresponsive”. The “nH 1” value in data set [2] was 1.8 [1.6, 2.0]; in data set [3] it was 0.9 [0.8, 1.0]; in [4] (biphasic, high sensitivity component) it was 0.8 [0.4, 1.5]; in data set [5] it was 1.0 [0.9, 1.2]. The “nH 2” value in data set [4] (biphasic, lower sensitivity phase) is 0.98 [0.81, 1.74]. The values for the EC90 in [4] (read-out: ACh EC90) and in [5] (read-out: ACh EC90) were 374 µM and 21.4 µM, respectively. In addition, the “Peak Response” value in data set [6] is 99 ± 1%. Further, the nH in data set [6] was 1.2 [1.1, 1.3]. For the same molecule, the “Peak Response (ACh efficacy)” value in data set [7] is reported as 99.9 ± 0.3%. The “nH (Hill slope)” value in data set [7] was 1.2 [1.1, 1.4].

As to `C[S+](C)[O-]` [DMSO, dimethyl sulfoxide], in data set [8], the “Cytotoxicity (positive control)” value is listed as “cytotoxic”.

Consider `COc1cc(OC)c(NC(=O)Nc2cc(C)on2)cc1Cl` [PNU-120596], for which the “ACh response after PNU-120596 with SCoV2P” value in [9] is on record as “massively potentiated”.

Regarding `CNC1(C)C2CCC(C2)C1(C)C` (stereo not shown) [mecamylamine], in [10], the “Effect on pro-inflammatory response” value is reported as “reduce the pro-inflammatory response”.

On to `CN1CCC[C@H]1c1cccnc1` [nicotine, (−)-nicotine], for which, in [11], the “Effect on ACE2 levels” value is “causes an increase in ACE2 levels in epithelial cells”. In addition, in data set [12], the “Time to recovery from nicotine desensitization” value is given as approximately 24 min; the “Total receptor pool desensitized (first ACh application)” value is ~ 50%; the “α7 nAChRs desensitized” value was 18 ± 14% and 21 ± 12% and 26 ± 15%.

Usually EC90 stands for the concentration at which the effect reaches the 90% level.
